In paper PMC8868518, “Exploring Titanium(IV) Complexes as Potential Antimicrobial Compounds” (Antibiotics, 2022):
Where two headings read alike, the source gives them in different places.

Assays:
[1] = system: S. aureus MRSA (ATCC 43300); experiment: CO-ADD antibacterial assay, growth inhibition (OD600); assay type: cell-based, Staphylococcus aureus
Method: (§1) Dry compounds ranging from 1–2 mg were weighed into properly labeled Eppendorf tubes and sealed with parafilm. The compounds were used as received by the CO-ADD. For the screenings, most compounds were dissolved to a stock concentration of 10 mg/mL in DMSO. K2[Ti(Citrate)3], Na3Citrate, and K2[TiO(Oxalate)2] were dissolved in warm water. […] Samples were diluted in water to a final testing concentration of 32 µg/mL while keeping the final co-solvent concentration to a maximum of 0.5%. Where applicable, compounds were serially diluted 1:2 fold eight times. Each sample concentration was prepared in 384-well plates, non-binding surface plate (NBS; Corning 3640) for each bacterial/fungal strain, tissue-culture treated (TC-treated; Corning 3712/3764), black for mammalian cell types and polypropylene 384-well (PP; Corning 3657) for hemolysis assays, all in duplicate (n = 2), and keeping the final DMSO concentration to a maximum of 0.5%. All sample preparation was conducted using liquid handling robots.
(§2) For the bacterial assays, four Gram-negative bacteria (E. coli (ATCC 25922, Manassas, VA, USA); K. pneumoniae (ATCC 700603), A. baumannii; (ATCC 19606), and P. aeruginosa (ATCC 27853) and the Gram-positive bacteria (S. aureus MRSA (ATCC 43300) were used. Each strain was cultured in cation-adjusted Mueller Hinton broth (CAMHB; Bacto Laboratories 212322, Mount Pritchard, Australia) at 37 °C overnight. A sample of each culture was then diluted 40-fold in fresh CAMHB and incubated at 37 °C for 1.5–3 h. The resultant mid-log phase cultures were diluted with CAMHB (CFU/mL measured by OD600), then added to each well of the compound-containing plates (384-well non-binding surface (NBS) plates; Corning CLS3640, Millipore Sigma, Burlington, MA, USA), giving a cell density of 5 × 10^5 CFU/mL and a total volume of 50 µL. Plates were covered and incubated at 37 °C for 18 h without shaking. Inhibition of bacterial growth was determined by measuring absorbance at 600 nm (OD600) with a Tecan M1000 Pro monochromator plate reader, using media-only as negative control and bacteria without inhibitors as a positive control. […] Colistin sulfate (Sigma C4461) and vancomycin HCl (Sigma 861987) were used as internal controls on each plate for Gram-negative and Gram-positive bacteria, respectively.

[2] = system: A. baumannii (ATCC 19606); experiment: as above; assay type: cell-based, Acinetobacter baumannii; conditions: up to 32 μg/mL
Method: as §1, §2

E. coli (ATCC 25922) = experiment: as above; assay type: cell-based, Escherichia coli; conditions: up to 32 μg/mL
Method: as §1, §2

[3] = system: K. pneumoniae (ATCC 700603); experiment: as above; assay type: cell-based, Klebsiella pneumoniae; conditions: up to 32 μg/mL
Method: as §1, §2

[4] = system: P. aeruginosa (ATCC 27853); experiment: as above; assay type: cell-based, Pseudomonas aeruginosa; conditions: up to 32 μg/mL
Method: as §1, §2

C. albicans (ATCC 90028) = experiment: CO-ADD antifungal assay, growth inhibition (OD630); assay type: cell-based, Candida albicans; conditions: up to 32 μg/mL
Method: (§3) The compounds were used as received by the CO-ADD. For the screenings, most compounds were dissolved to a stock concentration of 10 mg/mL in DMSO. K2[Ti(Citrate)3], Na3Citrate, and K2[TiO(Oxalate)2] were dissolved in warm water. [Cu(Deferasirox)(H2O)]2 was dissolved in pyridine after its solubility was determined to be excellent in pyridine due to coordination of the solvent to the metal producing [Cu(Deferasirox)(pyridine)]2 in situ. […] Each sample concentration was prepared in 384-well plates, non-binding surface plate (NBS; Corning 3640) for each bacterial/fungal strain, tissue-culture treated (TC-treated; Corning 3712/3764), black for mammalian cell types and polypropylene 384-well (PP; […] All sample preparation was conducted using liquid handling robots. For the fungal assays, the fungi (C. albicans (ATCC 90028) and C. neoformans) (ATCC 208821) were used. Both fungi (yeast) strains were cultured for 3 days on Yeast Extract-Peptone Dextrose (YPD; Becton Dickinson 242720, Thermo Fisher Scientific, Waltham, MA, USA) agar at 30 °C. A yeast suspension of 1 × 10^6 to 5 × 10^6 CFU/mL (as determined by OD530) was prepared from five colonies from the agar plates, subsequently diluted with Yeast Nitrogen Base media (YNB; Becton Dickinson 233520, Thermo Fisher Scientific, Waltham, MA, USA), and added to each well of the compound-containing plates (384-well plates, NBS; Corning CLS3640) giving a final cell density of 2.5 × 10^3 CFU/mL and a total volume of 50 μL. Plates were covered and incubated at 35 °C for 36 h without shaking. […] Sigma R7017) and incubation at 35 °C for 2 h, using media-only as a negative control and fungi without inhibitors as a positive control. […] Fluconazole (Sigma F8929) was used as an internal control on each plate for both strains.

[5] = system: C. neoformans (ATCC 208821); experiment: CO-ADD antifungal assay, growth inhibition (resazurin, OD600-570); assay type: cell-based, Cryptococcus neoformans; conditions: up to 32 μg/mL
Method: as §3

[6] = system: HEK293 ATCC CRL-1573 human embryonic kidney cells; experiment: CO-ADD cytotoxicity assay (resazurin); assay type: cell-based; conditions: all concentrations examined (0.25-32 μg/mL), 20 h; CC50 could not be measured
Method: The compounds were used as received by the CO-ADD. For the screenings, most compounds were dissolved to a stock concentration of 10 mg/mL in DMSO. K2[Ti(Citrate)3], Na3Citrate, and K2[TiO(Oxalate)2] were dissolved in warm water. [Cu(Deferasirox)(H2O)]2 was dissolved in pyridine after its solubility was determined to be excellent in pyridine due to coordination of the solvent to the metal producing [Cu(Deferasirox)(pyridine)]2 in situ. […] Each sample concentration was prepared in 384-well plates, non-binding surface plate (NBS; Corning 3640) for each bacterial/fungal strain, tissue-culture treated (TC-treated; Corning 3712/3764), black for mammalian cell types and polypropylene 384-well (PP; […] All sample preparation was conducted using liquid handling robots. HEK293 ATCC CRL-1573 human embryonic kidney cells were counted manually in a Neubauer hemocytometer and added to compound-containing plates (384-well plates, tissue culture-treated (TC); […] Life Technologies 11995-073) with 10% FBS (GE SH30084.03).

MRC-5 cells [7] = conditions: cited from earlier work
MRC-5 cells [8] = experiment: MRC-5 cell viability, dose-response treatment, MTT assay; assay type: cell-based, human; conditions: MRC-5 cells, MTT, 72 h, pH 7.4, n = 6, this work
Method: A thawed stock of MRC-5 cells was washed with 1X PBS and resuspended in phenol red DMEM media (supplemented with 10% FBS and 1% of penicillin-streptomycin) and then seeded in a 100 mm × 20 mm (complete, O.D. x H) petri dish and grown in a 5% (v/v) CO2 humidified atmosphere at 37 °C. At least three passages were performed to ensure the integrity of the cells. After this point, cells were collected, thoroughly washed with 1X PBS, and then resuspended in phenol red-free DMEM (supplemented with 10% FBS, 1% Streptomycin/Penicillin, and 2.4 mM L-glutamine) at a 2.0 × 10^5 cells/mL concentration. Approximately 100 µL of the cell solution was seeded into wells of several 96-well plates to begin the MTT assay, which was performed in the 5% (v/v) CO2 humidified atmosphere at 37 °C. At least one lane of wells in each plate was supplied media without cells as a control. […] Most of the compounds were dissolved in 1X PBS buffer at pH 7.4. […] Titanocene dichloride was prepared as a fresh stock solution in DMSO and then diluted in 0.1 M NaCl (aq) instead of 1X PBS (to minimize hydrolysis induced precipitation) to the desired concentration while maintaining a constant 1% (v/v) DMSO background (0.5% DMSO after mixing with the well media). A control of cells treated with media containing 1% (v/v) DMSO was included in the study. The titanocene solutions were used within an hour of preparation in the final cell solution. […] At 3 h before a total of 72 h of incubation with the compounds, the cells were treated with 25 µL of 9 mg/mL MTT prepared in 1X PBS and sterile-filtered. Upon completion of the three hours, 50 µL of 10% (w/v) SDS (prepared in 0.1 M Tris buffer at pH 11) was added to solubilize the purple formazan product crystals and left overnight in the incubator. Control wells in the plates consisted of: (1) Untreated cells + MTT as the measure of 100% viable cell growth in the media and (2) Media with no cells + MTT as the measure of zero cells in the media. Two sets of compounds could be tested per plate. The plates were read at the wavelength of 570 nm (absorbance of the formazan product at pH 10.0) and 800 nm (background control) using a Tecan plate reader. The absorbance of all wells was compared to the absorbance of the untreated cells with the MTT set as the 100% viable cell standard and the absorbance of the zero cell control set as the 0% viable cell standard. […] Nonlinear regression in Origin 8.5 was utilized to fit the growth curves using the pharmacology dose–response equation to determine the half-maximal inhibitory concentration (IC50) and the corresponding standard deviation. All samples were tested six times.

[9] = predicted or measured MIC, lowest concentration with ≥75% growth inhibition, 0.25-32 μg/mL, 18 h
[10] = predicted or measured MIC, ≥75% growth inhibition
[11] = predicted or measured MIC, ≥75% growth inhibition, 36 h

Compound	MIC S. aureus (MRSA) [1, 9] [µg/mL]	Dmax S. aureus (MRSA), maximum % inhibition ([1]; up to 32 μg/mL) [%]	MIC A. baumannii [2, 10] [µg/mL]	Dmax A. baumannii, maximum % inhibition [2] [%]	MIC E. coli (E. coli (ATCC 25922); [10]) [µg/mL]	Dmax E. coli, maximum % inhibition (E. coli (ATCC 25922)) [%]	MIC K. pneumoniae [3, 10] [µg/mL]	Dmax K. pneumoniae, maximum % inhibition [3] [%]	MIC P. aeruginosa [4, 10] [µg/mL]	Dmax P. aeruginosa, maximum % inhibition [4] [%]	MIC C. albicans (C. albicans (ATCC 90028); [11]) [µg/mL]	Dmax C. albicans, maximum % inhibition (C. albicans (ATCC 90028)) [%]	MIC C. neoformans [5, 11] [µg/mL]	Dmax C. neoformans, maximum % inhibition [5] [%]	further results
4-[(3Z,5E)-3,5-Bis(6-oxocyclohexa-2,4-dien-1-ylidene)-1,2,4-triazolidin-1-yl] benzoic acid [Compound 4, reference compound]	>32	44.31	>32	18.95	>32	7.72	>32	20.2	>32	5.82	>32	4.31	>32	−25.58	antiproliferative effect against HEK293 (in words) [6]: inactive; IC50 ± SD (µM) (MRC-5 cells [7]): Proliferative Behavior; increase in the proliferation of MRC-5 cells (MRC-5 cells [7]): nearly three-fold increase
Oc1ccccc1-c1n[nH]c(-c2ccccc2O)n1 [Compound 3, 2-[3-(2-Hydroxyphenyl)-1H-1,2,4-triazol-5-yl]phenol, reference compound]	–	–	–	–	–	–	–	–	–	–	–	–	–	–	activity against MRSA (in words) ([1]; CO-ADD screen, 32 μg/mL): inactive; MIC ([1]; Staphylococcus aureus, predicted or measured MIC, lowest concentration with ≥75% growth inhibition, 0.25-32 μg/mL, 18 h): > 32 µg/mL; Dmax ([1]; Staphylococcus aureus, up to 32 μg/mL, read-out: Dmax S. aureus (MRSA), maximum % inhibition): -2.34%; MIC ([2]; Acinetobacter baumannii, ATCC19606, predicted or measured MIC, ≥75% growth inhibition): > 32 µg/mL; Dmax ([2]; Acinetobacter baumannii, ATCC19606, read-out: Dmax A. baumannii, maximum % inhibition): -1.93%; MIC (E. coli (ATCC 25922); Escherichia coli, ATCC25922, predicted or measured MIC, ≥75% growth inhibition): > 32 µg/mL; Dmax (E. coli (ATCC 25922); Escherichia coli, ATCC25922, read-out: Dmax E. coli, maximum % inhibition): -9.07%; MIC ([3]; Klebsiella pneumoniae, ATCC700603, predicted or measured MIC, ≥75% growth inhibition): > 32 µg/mL; Dmax ([3]; Klebsiella pneumoniae, ATCC700603, read-out: Dmax K. pneumoniae, maximum % inhibition): 4.11%; MIC ([4]; Pseudomonas aeruginosa, ATCC27853, predicted or measured MIC, ≥75% growth inhibition): > 32 µg/mL; Dmax ([4]; Pseudomonas aeruginosa, ATCC27853, read-out: Dmax P. aeruginosa, maximum % inhibition): 10%; MIC (C. albicans (ATCC 90028); Candida albicans, ATCC90028, predicted or measured MIC, ≥75% growth inhibition, 36 h): > 32 µg/mL; Dmax (C. albicans (ATCC 90028); Candida albicans, ATCC90028, read-out: Dmax C. albicans, maximum % inhibition): 6.23%; MIC ([5]; Cryptococcus neoformans, ATCC208821, predicted or measured MIC, ≥75% growth inhibition, 36 h): > 32 µg/mL; Dmax ([5]; Cryptococcus neoformans, ATCC208821, read-out: Dmax C. neoformans, maximum % inhibition): -7.23%; IC50 ± SD (µg/mL) (MRC-5 cells [7]): >>25.3 µg/mL; IC50 (MRC-5 cells [7]; read-out: IC50 ± SD): > 100 µM
K2[Ti(Citrate)3] [Compound 7]	>32	38.01	>32	17.94	>32	10.41	>32	15.43	>32	7.99	>32	44.53	>32	−7.88	IC50 ± SD (µg/mL) (MRC-5 cells [8]): >>73.2 µg/mL; IC50 (MRC-5 cells [8]; read-out: IC50 ± SD): > 100 µM
